Reference: patent US20200253979A1, “THERAPEUTIC METHODS RELATING TO HSP90 INHIBITORS” (AI Therapeutics, Inc., priority 2017, published 2020)
Like-named read-outs stand apart in the source and are kept apart here.

How the values were obtained:
[1] = test system: MOLM-13 FLT3-ITD AML cell line; test: Systemic survival xenograft study, MPC-0767 with 5′azacitidine; conditions: single agents: MPC-0767 75 mg/kg p.o.; 5′azacitidine 2 mg/kg QD×4 i.p.; vs vehicle
Protocol: A systemic survival xenograft study was performed using the MOLM-13 FLT3-ITD harboring AML cell line.
Before tumor cell inoculation, NOD/SCID mice were pre-treated for 2 days with a daily intraperitoneal injection of 100 mg/kg cyclophosphamide to facilitate engraftment of the human MOLM-13 tumor cells. After the injection of cyclophosphamide, the animals were allowed to recover for 24 hours prior to inoculation with human MOLM-13 tumor cells. Each mouse was then inoculated with 1×10^7 MOLM-13 cells in 100 μL PBS via intravenous tail vein injection. Mice were next randomized into 4 groups of 6 mice each. […] Viability and body weight loss were monitored daily.

MOLM-14 cells (FLT3-ITD) = test: CellTiter-Glo cell viability (single agent and combination); type: cell-based; conditions: for combination index (CI) of AML drug in combination with MPC-0767: MOLM-14, 72 hours, average CI (* n=1); for IC50: Homo sapiens, MOLM-14, 72 h, 72 hours, read-out: EC50 (cell viability)
Protocol: HS-5 is a human marrow stromal cell line that secretes various growth factors sufficient to support hematopoietic progenitor growth (Roecklein et al., Blood, 1995) which thus mimics stromal conditions.
(§1) Three cell lines which harbor FLT3-ITD were used for the drug combination studies (MV-4-11, MOLM-13, and MOLM-14).
(§2) Cells were treated with the drugs (single agent or combination) for 72 hours. Drug combination activity was determined by first measuring cell viability with CellTiter-Glo®, followed by the calculation of the EC50 corresponding to single agent activity, using the R DRC package (R Core Team, 2017). The combination index (CI) values were computed using the Chou-Talalay method (Chou T, Cancer Research., 2010 70(2): 440-6.), based on the viability of each drug alone and in combination, across all concentrations tested. In brief, CI was defined as: […]
(§3) Loss of function mutations of KDM6A are observed in FLT3-ITD AML (Garg et al., 2015 Blood 126 (22):2491-501). […] To therapeutically exploit this finding, we hypothesized that inhibiting EZH2, the histone H3K27 methyltransferase that functionally opposes KDM6A, would enhance sensitivity to MPC-0767. To test this hypothesis, a FLT3-ITD cell line (MV-4-11) was used and treated with either of the two clinical stage EZH2 inhibitors, EPZ-6438 and CPI-1205, at 8 different concentrations for 4 days. Following this time, cells were counted, reseeded and treated with 8 concentrations of EZH2 inhibitor alone, 8 concentrations of MPC-0767 alone, or the combination of the two (64 total combinations).

MV-4-11 cells (FLT3-ITD) = test: as above; type: cell-based; conditions: MV-4-11, 72 hours, average CI
Protocol: as §1, §2, §3

[2] = cited from earlier work
MOLM-13 cells (FLT3-ITD) = test: CellTiter-Glo cell viability (combination); type: cell-based, human; conditions: MOLM-13, 72 hours, average CI
Protocol: as §1, §2

MOLM-13-LUC cells = test: CellTiter-Glo cell viability; type: cell-based; conditions: Homo sapiens, 72 hours
Excerpt: (§4) In the clinic, tyrosine kinase inhibitors that target FLT3 initially show positive responses, but patients inevitably relapse due to the development of drug-resistance through various mechanisms, as discussed above.

[3] = test system: BaF3 cells harboring FLT3-ITD F691L; test: CellTiter-Glo cell viability; type: cell-based, murine
Protocol: (§5) EC50 values were calculated using equation 1 (as described above).

[4] = test system: MOLM-13-R-PKC412 (midostaurin-resistant) cells; test: CellTiter-Glo cell viability; type: cell-based, human
Excerpt: as §4

[5] = test system: BaF3 cells harboring FLT3-ITD; test: CellTiter-Glo cell viability; type: cell-based, murine; conditions: Mus musculus, 72 hours
Protocol: After this time cell viability was determined using CTG and EC50 values determined.
as §5
BaF3 cells require the supplementation of IL-3 to activate the IL-3 receptor for growth. However, in BaF3 cells transfected with FLT3-ITD, cells no longer require IL3 as survival is solely driven by oncogenic FLT3 signaling.

[6] = test system: phospho-ERK (pERK) in MOLM-13 cells; test: Phospho-ERK level; type: cell-based, human; conditions: MPC-0767 800 nM, ATO 625 nM or combination, 24 hours
Excerpt: (§6) We next explored whether the synergistic activity of MPC-0767 and ATO was due to a more complete abrogation of FLT3-ITD oncogenic signaling. […] After this time cells were harvested for the assessment of cell surface FLT3 expression by flow cytometry. To additionally measure the effects of abrogating FLT3, we assessed phospho-ERK (pERK) and phospho-S6 (pS6), as these are two known downstream effectors.

[7] = test system: cell surface FLT3 in MOLM-13 cells; test: Cell surface FLT3 by flow cytometry; type: cell-based, human; conditions: MOLM-13; MPC-0767 800 nM, ATO 625 nM or combination; 24 hours
Protocol: (§7) To determine whether MPC-0767 can promote the degradation of FLT3-ITD and abolish downstream signaling, MV-4-11 and MOLM-13 cells were treated with vehicle or MPC-0767 (1 μM) for 24 hours. Cells were harvested for flow cytometry to assess cell surface FLT3 protein abundance. In addition, the measurement of a key phosphorylation site of S6 (phospho-S6) was used as a marker for oncogenic FLT3-ITD signaling (Zimmerman et al., Blood. 2013 122(22): 3607-3615). Indeed, in both MV-4-11 and MOLM-13 cells treated with MPC-0767 there was a >65% reduction in cell surface FLT3 (FIGS. 10A and 10B, respectively) and >70% reduction in phospho-S6 (FIGS. 10C and 10D, respectively).
as §6

[8] = test system: phospho-S6 in MOLM-13 cells; test: Phospho-S6 by flow cytometry; type: cell-based, human; conditions: MOLM-13; MPC-0767 800 nM, ATO 625 nM or combination; 24 hours
Protocol: as §7, §6

[9] = test system: PD-1+ Jurkat reporter cells with THP-1 AML cells; test: Jurkat NFAT-luciferase reporter T cell activation with THP-1 cells; type: cell-based; conditions: THP-1 treated 24 hr with IFNγ 50 ng/ml; PD-L1 blocking antibody added
Excerpt: The addition of antibodies that block the PD-1/PD-L1 pathway stimulate an increased T cell response in vitro, in pre-clinical animal models, and in cancer patients. This can lead to tumor regressions or tumor clearance in patients. To examine MPC-0767 effects on PD-L1 and T cell activation, we used a model system in which PD-1+ Jurkat T cells express luciferase under the control of the NFAT promoter (Promega, hereafter referred to Jurkat reporter cells). When T cells are stimulated through the T cell receptor (TCR), activation of the NFAT pathway drives expression of luciferase.
We next determined whether MPC-0767 reduction of PD-L1 could increase T cell stimulation similar to anti-PD-L1 blocking antibodies. THP-1 cells were treated overnight with IFNγ in the presence or absence of MPC-0767 (1 μM or 2 uM). THP-1 cells were washed and a portion saved for flow cytometry analysis of PD-L1 expression. The remaining cells were incubated with Jurkat reporter cells and anti-CD3 (10 ng/ml) for 6 hours.

[10] = MOLM-14, stromal media (HS-5 conditioned)

## Nc1ncn([C@@H]2O[C@H](CO)[C@@H](O)[C@H]2O)c(=O)n1 [5′azacitidine, reference compound]
[1]
  increase in median survival: 8 days

## Nc1ccn([C@@H]2O[C@H](CO)[C@@H](O)[C@@H]2O)c(=O)n1 [Cytarabine, cytarabine]
MOLM-14 cells (FLT3-ITD)
  combination index (CI) of AML drug in combination with MPC-0767: CI = 0.9*
MV-4-11 cells (FLT3-ITD)
  combination index (CI) of AML drug in combination with MPC-0767: CI = 0.8

## C[C@H](O)C(=O)N1CCC(CCn2c(Sc3cc4c(cc3Br)OCO4)nc3c(N)ncnc32)CC1 [MPC-3100, (2S)-1-[4-(2-{6-Amino-8-[(6-bromo-1,3-benzodioxol-5-yl)sulfanyl]-9H-purin-9-yl}ethyl)piperidin-1-yl]-2-hydroxypropan-1-one, reference compound]
[2]
  aqueous solubility: poor solubility

## CNC(=O)c1cc(Oc2ccc(NC(=O)Nc3ccc(Cl)c(C(F)(F)F)c3)cc2)ccn1 [Sorafenib, sorafenib]
MV-4-11 cells (FLT3-ITD)
  combination index (CI) of AML drug in combination with MPC-0767: CI = 0.8

## CC1(C)CCC(CN2CCN(c3ccc(C(=O)NS(=O)(=O)c4ccc(NCC5CCOCC5)c([N+](=O)[O-])c4)c(Oc4cnc5[nH]ccc5c4)c3)CC2)=C(c2ccc(Cl)cc2)C1 [Venetoclax, venetoclax]
MOLM-14 cells (FLT3-ITD)
  combination index (CI) of AML drug in combination with MPC-0767: CI = 0.6
MOLM-13 cells (FLT3-ITD)
  combination index (CI) of AML drug in combination with MPC-0767: CI = 0.3
MOLM-13 cells (FLT3-ITD); listed as venetoclax
  combination index (CI) of AML drug in combination with MPC-0767: 0.3
MV-4-11 cells (FLT3-ITD)
  combination index (CI) of AML drug in combination with MPC-0767: CI = 0.7
MV-4-11 cells (FLT3-ITD); listed as venetoclax
  combination index (CI) of AML drug in combination with MPC-0767: 0.7

## CC1(COc2ccc3c(c2)ncn3-c2ccc3cccc(N4CCC(N)CC4)c3n2)COC1 [crenolanib]
MOLM-14 cells (FLT3-ITD); MOLM-14, non-stromal media
  IC50: 3 nM
MOLM-14 cells (FLT3-ITD); [10]
  IC50: > 100 nM
MOLM-13 cells (FLT3-ITD)
  combination index (CI) of AML drug in combination with MPC-0767: CI = 0.9
MOLM-13-LUC cells
  EC50: 9 nM
[3]; BaF3, 72 hours
  fold resistance, FLT3-ITD-F691L vs FLT3-ITD: approximately 23 fold
[3]; Mus musculus, BaF3 FLT3-ITD-F691L, 72 hours
  EC50: 90 nM
[4]; Homo sapiens, MOLM-13-R-PKC412, 72 hours
  EC50: 25 nM
[4]; MOLM-13-R-PKC412 vs MOLM-13-LUC
  fold difference in EC50, midostaurin-resistant vs control cells: approximately 3 fold
MV-4-11 cells (FLT3-ITD)
  combination index (CI) of AML drug in combination with MPC-0767: CI = 0.7
[5]
  EC50: 4 nM

## CCc1nc(C(N)=O)c(Nc2ccc(N3CCC(N4CCN(C)CC4)CC3)c(OC)c2)nc1NC1CCOCC1 [gilteritinib]
MOLM-14 cells (FLT3-ITD); MOLM-14, non-stromal media
  IC50: 6 nM
MOLM-14 cells (FLT3-ITD); [10]
  IC50: > 100 nM
MOLM-13 cells (FLT3-ITD)
  combination index (CI) of AML drug in combination with MPC-0767: CI = 0.9

## arsenic trioxide [ATO, reference compound]
[6]
  pERK level: mildly reduced
[7]
  FLT3 level (cell surface): reduced
[8]
  pS6 level: reduced

## atezolizulmab: PD-L1 blocking antibody
[9]
  T cell activation (luciferase): restores T cell activation to untreated levels
